In patent publication US9752168B2, “Compositions comprising a polypeptide having cellulolytic enhancing activity and a quinone compound and uses thereof” (priority 2010, dated 2017):
Read-outs that look alike come from different tables or passages of the source.

What was measured:
[1] = target: Aspergillus fumigatus GH61B polypeptide (Aspergillus fumigatus, UniProt Q4WP32); assay type: biochemical; details: A. fumigatus GH61B 0.4 or 2 mg per ml
[2] = tested on: Talaromyces stipitatus GH61 polypeptide; assay type: biochemical; details: T. stipitatus GH61 0.4 or 2 mg per g cellulose
[3] = tested on: Trichoderma reesei cellulase composition; assay: Hydrolysis of AVICEL® (microcrystalline cellulose) by the T. reesei cellulase composition; details: for quinone compound effect(no GH61) (ratio, Equation 2): AVICEL®; for Percent conversion of AVICEL®: no quinone compound, cellulase 4 mg protein/g cellulose, GH61 polypeptide where present 0.4 mg/g cellulose (10% w/w of cellulase)
[4] = tested on: Penicillium pinophilum GH61A polypeptide; assay type: biochemical; details: P. pinophilum GH61A 0.4 or 2 mg per ml
[5] = tested on: Thielavia terrestris GH61E polypeptide; assay type: biochemical; details: AVICEL®, T. terrestris GH61E 0.4 or 2 mg per ml
[6] = target: A. oryzae CEL3A beta-glucosidase (Aspergillus oryzae, UniProt Q2UUD6); assay type: biochemical; details: 96 hours at 50° C.
[7] = tested on: A. oryzae CEL3A beta-glucosidase; assay type: biochemical; details: 96 hours at 50° C.
[8] = tested on: Trichoderma reesei cellulase composition; details: milled unwashed PCS; 5 mM quinone; 1, 3, and 7 days (white bars)
[9] = tested on: Trichoderma reesei cellulase composition; details: milled washed PCS
[10] = AVICEL®, 5 mM quinone present, days 3 and 7
[11] = AVICEL®, 5 mM quinone, day 1 and 3
[12] = 5 mM quinone, 1, 3, and 7 days (white bars)
[13] = quinone added to A. oryzae CEL3A beta-glucosidase (10 mg/g cellulose), no GH61A
[14] = quinone with T. aurantiacus GH61A polypeptide (10 mg/g cellulose) and A. oryzae CEL3A beta-glucosidase (10 mg/g cellulose)
[15] = component added alone, beta-glucosidase or GH61A 10 mg protein per g cellulose, adrenochrome […] w/w, 4-tert-butyl-5-methoxy-1,2-benzoquinone 0.15% w/w
[16] = quinone with T. aurantiacus GH61A polypeptide (10 mg/g cellulose), no beta-glucosidase

Chain of Aspergillus fumigatus GH61B polypeptide (Q4WP32 22-250): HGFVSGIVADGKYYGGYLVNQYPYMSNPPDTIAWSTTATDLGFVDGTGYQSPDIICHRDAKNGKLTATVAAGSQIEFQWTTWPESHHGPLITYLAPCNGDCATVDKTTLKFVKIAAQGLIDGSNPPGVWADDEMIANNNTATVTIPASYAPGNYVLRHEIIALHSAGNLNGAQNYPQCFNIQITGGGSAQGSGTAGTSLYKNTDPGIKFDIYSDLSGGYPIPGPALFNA

## CC1=CC(=O)C=CC1=O [2-methyl-1,4-benzoquinone]
[1]; 5 mM quinone, day 7
  Day 7 hydrolysis of AVICEL® in the presence of quinone and GH61 polypeptide: not significantly impacted
[1]; [10]
  GH61 effect (ratio, Equation 4): greater than 1
[1]; [11]
  quinone compound effect(+GH61) (ratio, Equation 3): less than 1
[2]; 5 mM quinone, day 7
  Day 7 hydrolysis of AVICEL® in the presence of quinone and GH61 polypeptide: not significantly impacted
[2]; [10]
  GH61 effect (ratio, Equation 4): greater than 1
[2]; [11]
  quinone compound effect(+GH61) (ratio, Equation 3): less than 1
[3]; [12]
  quinone compound effect(no GH61) (ratio, Equation 2): less than 1
[4]; 5 mM quinone, day 7
  Day 7 hydrolysis of AVICEL® in the presence of quinone and GH61 polypeptide: not significantly impacted
[4]; [10]
  GH61 effect (ratio, Equation 4): greater than 1
[4]; [11]
  quinone compound effect(+GH61) (ratio, Equation 3): less than 1
[5]; 5 mM quinone present, days 3 and 7
  GH61 effect (ratio, Equation 4): greater than 1
[5]; 5 mM quinone, day 7
  quinone compound effect(+GH61) (ratio, Equation 3): less than 1

## COC1=CC(=O)C(=O)C=C1C(C)(C)C [4-tert-butyl-5-methoxy-1,2-benzoquinone]
[6]; [13]
  conversion of PASC: 1.6±0.1%
[6]; [14]
  conversion of PASC: 29.9±3.2%
[7]; [15]
  conversion of PASC: no significant conversion
[7]; [16]
  conversion of PASC: 0.8±0.6%

## O=C1c2ccccc2C(=O)c2c(O)ccc(O)c21
[3]; 1 mM quinone, 3 days of hydrolysis
  quinone compound effect(no GH61) (ratio, Equation 2): 0.932±0.0123
[3]; 1 mM quinone, 7 days of hydrolysis
  quinone compound effect(no GH61) (ratio, Equation 2): 1.01±0.0120

## COC1=C(OC)C(=O)C(C)=CC1=O
[8]
  quinone compound effect(no GH61) (ratio, Equation 2): greater than 1
[9]; 10 mM quinone, 1 and 3 days, cellulase 2 mg per g cellulose
  quinone compound effect(no GH61) (ratio, Equation 2): less than 1
[3]; 5 mM quinone, day 3 and 7
  quinone compound effect(no GH61) (ratio, Equation 2): less than 1
[3]; 10 mM quinone, 1 and 3 days
  quinone compound effect(no GH61) (ratio, Equation 2): less than 1

## O=C1C=CC(=O)c2ccccc21 [1,4-naphthoquinone]
[9]; [12]
  quinone compound effect(no GH61) (ratio, Equation 2): less than 1
[3]; [12]
  quinone compound effect(no GH61) (ratio, Equation 2): less than 1

## O=C1C=CC(=O)C=C1 [1,4-benzoquinone]
[3]; [12]
  quinone compound effect(no GH61) (ratio, Equation 2): less than 1

## CN1CC(O)C2=CC(=O)C(=O)C=C21 (stereo not shown) [adrenochrome, 3-hydroxy-1-methyl-5,6-indolinedione]
[6]; [13]
  conversion of PASC: 0.3±0.3%
[6]; [14]
  conversion of PASC: 8.5±2.0%
[7]; [15]
  conversion of PASC: no significant conversion
[7]; [16]
  conversion of PASC: 0.1±0.1%

## O=C1C=C(O)C(=O)c2ccccc21
[3]; 1 mM quinone, FIG. 1E white bars
  quinone compound effect(no GH61) (ratio, Equation 2): less than 1

B1: P. pinophilum GH61A polypeptide: GH61A polypeptide having cellulolytic enhancing activity (SEQ ID NO: 32), recombinantly prepared according to WO 2011/005867 (protein, listed as Penicillium pinophilum)
chain: MPSTKVAALSAVLALASTVAGHGFVQNIVIDGKSYSGYLVNQFPYESNPPAVIGWATTATDLGFVAPSEYTNADIICHKNATPGALSAPVAAGGTVELQWTTWPDSHHGPVISYLANCNGNCSTVDKTKLDFVKIDQGGLIDDTTPPGTWASDKLIAANNSWTVTIPSTIAPGNYVLRHEIIALHSAGNADGAQNYPQCINLEITGSGTAAPSGTAGEKLYTSTDPGILVNIYQSLSTYVIPGPTLWSGAANGAVATGSATAVATTATASATATPTTLVTSVAPASSTFATAVVTTVAPAVTDVVTVTDVVTVTTVITTTVL
[3]; 1 day
  Percent conversion of AVICEL®: 14.1±0.4%
[3]; 3 days
  Percent conversion of AVICEL®: 28.5±0.5%
[3]; 7 days
  Percent conversion of AVICEL®: 46±2%

B2: T. terrestris GH61E polypeptide: GH61E polypeptide having cellulolytic enhancing activity (SEQ ID NO: 8), recombinantly prepared according to WO 2005/074647 A2 (protein, listed as Thielavia terrestris)
chain: MLANGAIVFLAAALGVSGHYTWPRVNDGADWQQVRKADNWQDNGYVGDVTSPQIRCFQATPSPAPSVLNTTAGSTVTYWANPDVYHPGPVQFYMARVPDGEDINSWNGDGAVWFKVYEDHPTFGAQLTWPSTGKSSFAVPIPPCIKSGYYLLRAEQIGLHVAQSVGGAQFYISCAQLSVTGGGSTEPPNKVAFPGAYSATDPGILINIYYPVPTSYQNPGPAVFSC
[3]; 1 day
  Percent conversion of AVICEL®: 14.7±0.3%
[3]; 3 days
  Percent conversion of AVICEL®: 29.2±0.4%
[3]; 7 days
  Percent conversion of AVICEL®: 49.3±0.5%

B3: T. reesei GH61B polypeptide: GH61B polypeptide having cellulolytic enhancing activity (SEQ ID NO: 16), recombinantly prepared according to WO 2007/089290 A2 (protein, listed as Trichoderma reesei)
chain: MKSCAILAALGCLAGSVLGHGQVQNFTINGQYNQGFILDYYYQKQNTGHFPNVAGWYAEDLDLGFISPDQYTTPDIVCHKNAAPGAISATAAAGSNIVFQWGPGVWPHPYGPIVTYVVECSGSCTTVNKNNLRWVKIQEAGINYNTQVWAQQDLINQGNKWTVKIPSSLRPGNYVFRHELLAAHGASSANGMQNYPQCVNIAVTGSGTKALPAGTPATQLYKPTDPGILFNPYTTITSYTIPGPALWQG
[3]; 1 day
  Percent conversion of AVICEL®: 13.6±0.4%
[3]; 3 days
  Percent conversion of AVICEL®: 29±2%
[3]; 7 days
  Percent conversion of AVICEL®: 44±2%

B4: A. oryzae CEL3A beta-glucosidase: beta-glucosidase (SEQ ID NO: 112) recombinantly prepared as described in WO 2004/099228 (protein, listed as Aspergillus oryzae)
chain: MKLGWIEVAALAAASVVSAKDDLAYSPPFYPSPWADGQGEWAEVYKRAVDIVSQMTLTEKVNLTTGTGWQLERCVGQTGSVPRLNIPSLCLQDSPLGIRFSDYNSAFPAGVNVAATWDKTLAYLRGQAMGEEFSDKGIDVQLGPAAGPLGAHPDGGRNWEGFSPDPALTGVLFAETIKGIQDAGVIATAKHYIMNEQEHFRQQPEAAGYGFNVSDSLSSNVDDKTMHELYLWPFADAVRAGVGAVMCSYNQINNSYGCENSETLNKLLKAELGFQGFVMSDWTAHHSGVGAALAGLDMSMPGDVTFDSGTSFWGANLTVGVLNGTIPQWRVDDMAVRIMAAYYKVGRDTKYTPPNFSSWTRDEYGFAHNHVSEGAYERVNEFVDVQRDHADLIRRIGAQSTVLLKNKGALPLSRKEKLVALLGEDAGSNSWGANGCDDRGCDNGTLAMAWGSGTANFPYLVTPEQAIQNEVLQGRGNVFAVTDSWALDKIAAAARQASVSLVFVNSDSGEGYLSVDGNEGDRNNITLWKNGDNVVKTAANNCNNTVVIIHSVGPVLIDEWYDHPNVTGILWAGLPGQESGNSIADVLYGRVNPGAKSPFTWGKTRESYGSPLVKDANNGNGAPQSDFTQGVFIDYRHFDKFNETPIYEFGYGLSYTTFELSDLHVQPLNASRYTPTSGMTEAAKNFGEIGDASEYVYPEGLERIHEFIYPWINSTDLKASSDDSNYGWEDSKYIPEGATDGSAQPRLPASGGAGGNPGLYEDLFRVSVKVKNTGNVAGDEVPQLYVSLGGPNEPKVVLRKFERIHLAPSQEAVWTTTLTRRDLANWDVSAQDWTVTPYPKTIYVGNSSRKLPLQASLPKAQ
[7]; [15]
  conversion of PASC: 1.5±0.3%

B5: T. stipitatus GH61 polypeptide: GH61 polypeptide having cellulolytic enhancing activity (SEQ ID NO: 164), recombinantly prepared as described in Example 3 (protein, listed as Talaromyces stipitatus)
chain: MPSTKVAALSAVLALASTVAGHGFVQNIVIDGKSYTGYLVNQYPYQSNPPAVIGWSTTATDLGFVDGSGYTNPDIICHKNAKPGQLSAPVAAGGKVELEWTTWPESHHGPVISYLANCNGDCTTVDKTKLEFVKIDQRGLIDDSNPPGTWAADQLIAANNSWTVTIPESIAPGNYVLRHEIIALHSANNATGAQNYPQCINLQITGSGTANPSGTPGEKLYTPTDPGILVNIYQSLSSYVIPGPTLWSGAAAHVVATAAGSATGVASATATPTTLVTAVSSPTGAPSVVTPEAPSVTSFAPVVTVTDVVTVTTVITTTIS
[3]; 1 day
  Percent conversion of AVICEL®: 13.6±0.4%
[3]; 3 days
  Percent conversion of AVICEL®: 27.9±0.2%
[3]; 7 days
  Percent conversion of AVICEL®: 44.7±0.5%
